In brackets after ≈: the same amount, converted by molar mass.
Tests used:
Test in all cases: CLSI broth dilution MIC determination
Assay type in all cases: cell-based
[1] = tested on: S. aureus MP-17 ATCCBAA-977 (BAA 977 iErm); details: Staphylococcus aureus; S. aureus MP-17, ATCCBAA-977, iErm; read-out: MIC
Method in brief: (§1)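 Minimum inhibitory concentrations come from CLSI-standard broth dilution. The panel emphasises macrolide-resistance mechanisms, whose genotypes can be constitutive or inducible.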

S. aureus MRSA: USA100 = details: Staphylococcus aureus; S. aureus MRSA: USA100 (MP-618 UNT-096); read-out: MIC
Method in brief: as §1

[2] = tested on: E. coli MP-532 clinical-cErmB; details: Escherichia coli
Method in brief: as §1

S. aureus MRSA: USA300 = details: Staphylococcus aureus; S. aureus MRSA: USA300 (MP-549, msr(a)); read-out: MIC
Method in brief: as §1

S. aureus USA600, GISA = details: Staphylococcus aureus; S. aureus USA600, GISA (MP-619 UNT-120); read-out: MIC
Method in brief: as §1

[3] = tested on: S. pneumoniae mef A genotype (first strain so labelled); details: Streptococcus pneumoniae, first strain (MP-626 UNT-038)
Method in brief: as §1

[4] = tested on: E. coli MP-9 ATCC25922:tolC; details: Escherichia coli, ATCC25922
Method in brief: as §1

[5] = tested on: S. pneumoniae mef A genotype (second strain so labelled); details: Streptococcus pneumoniae, second strain (MP-627 UNT-039), read-out: MIC
Method in brief: as §1

E. coli MP-541 clinical = details: Escherichia coli, MP541CLINICAL, read-out: MIC
Method in brief: as §1

S. aureus ATCC 29213 = details: Staphylococcus aureus, ATCC29213; S. aureus ATCC 29213 (MP-12); read-out: MIC
Method in brief: as §1

S. pneumoniae ATCC 49619 = details: Streptococcus pneumoniae, ATCC49619, S. pneumoniae ATCC 49619 (MP-21); read-out: MIC
Method in brief: as §1

[6] = tested on: S. aureus (MRSA) MP-513 ST-228 cErm (Clinical-cErm); details: Staphylococcus aureus, read-out: MIC
Method in brief: as §1

E. coli ATCC 25922 = details: Escherichia coli, ATCC25922, E. coli ATCC 25922 (MP-4); read-out: MIC
Method in brief: as §1

S. aureus erm A genotype = details: Staphylococcus aureus; S. aureus erm A genotype (MP-620 UNT-146); read-out: MIC
Method in brief: as §1

E. faecalis ATCC 29212 = details: Enterococcus faecalis, ATCC29212, E. faecalis ATCC 29212 (MP-24); read-out: MIC
K. pneumoniae ATCC 10031 = details: Klebsiella pneumoniae, ATCC10031, K. pneumoniae ATCC 10031 (MP-14); read-out: MIC
P. aeruginosa MP-7 PAO1 = details: Pseudomonas aeruginosa, read-out: MIC
[7] = tested on: K. pneumoniae MP-548 clinical; details: Klebsiella pneumoniae, MP548CLINICAL, read-out: MIC
[8] = tested on: A. baumannii MP-576 Clinical-MDR; details: Acinetobacter baumannii, read-out: MIC
P. aeruginosa ATCC 27853 = details: Pseudomonas aeruginosa, ATCC27853; P. aeruginosa ATCC 27853 (MP-3); read-out: MIC
A. baumannii ATCC 19606 = details: Acinetobacter baumannii, ATCC19606; A. baumannii ATCC 19606 (MP-15); read-out: MIC
[9] = tested on: S. pyogenes Macrolide-resistant; details: Streptococcus pyogenes, S. pyogenes Macrolide-resistant (MP-625 UNT-014); read-out: MIC
S. pyogenes ATCC 19615 = details: Streptococcus pyogenes, ATCC19615, S. pyogenes ATCC 19615 (MP-19); read-out: MIC
[10] = tested on: A. baumannii MP-577 Clinical-AZT low; details: Acinetobacter baumannii, read-out: MIC
[11] = tested on: P. aeruginosa MP-8 PAO1:mex (mex-oprM-deletion); details: Pseudomonas aeruginosa, PAO1
[12] = tested on: E. faecalis Vancomycin-resistant; details: Enterococcus faecalis, E. faecalis Vancomycin-resistant (UNT-039); read-out: MIC
[13] = tested on: K. pneumoniae MP-546 Clinical-MDR; details: Klebsiella pneumoniae, read-out: MIC

| SMILES | MIC [1] | MIC (S. aureus MRSA: USA100) | MIC [2] | MIC (S. aureus MRSA: USA300) | MIC (S. aureus USA600, GISA) | MIC [3] | MIC [4] | MIC [5] | MIC (E. coli MP-541 clinical) | MIC (S. aureus ATCC 29213) | MIC (S. pneumoniae ATCC 49619) | MIC [6] | MIC (E. coli ATCC 25922) | MIC (S. aureus erm A genotype) | MIC (E. faecalis ATCC 29212) | MIC (K. pneumoniae ATCC 10031) | MIC (P. aeruginosa MP-7 PAO1) | MIC [7] | MIC [8] | MIC (P. aeruginosa ATCC 27853) | also measured |
| --- | --- | --- | --- | --- | --- | --- | --- | --- | --- | --- | --- | --- | --- | --- | --- | --- | --- | --- | --- | --- | --- |
| CC[C@H]1OC(=O)[C@@](C)(F)C(=O)[C@H](C)[C@@H](O[C@@H]2OC(C)CC(N(C)C)C2O)[C@](C)(OC)C[C@@H](C)C(=O)[C@H](C)[C@H]2N(CC#CCn3cc(-c4cc(F)ccn4)nn3)C(=O)O[C@]12C (stereo partly drawn) [FSM-100563] | 0.06 µg/mL (≈ 0.071 µM) | 32 µg/mL (≈ 37.9 µM) | > 64 µg/mL | 0.125 µg/mL (≈ 0.148 µM) | 16 µg/mL (≈ 18.9 µM) | < 0.03 µg/mL | 2 µg/mL (≈ 2.37 µM) | < 0.03 µg/mL | 16 µg/mL (≈ 18.9 µM) | 0.06 µg/mL (≈ 0.071 µM) | < 0.03 µg/mL | 16 µg/mL (≈ 18.9 µM) | 16 µg/mL (≈ 18.9 µM) | 16 µg/mL (≈ 18.9 µM) | < 0.03 µg/mL | 8 µg/mL (≈ 9.47 µM) | 64 µg/mL (≈ 75.7 µM) | 64 µg/mL (≈ 75.7 µM) | > 64 µg/mL | 32 µg/mL (≈ 37.9 µM) | MIC (A. baumannii ATCC 19606): 8 µg/mL (≈ 9.47 µM); MIC [9]: < 0.03 µg/mL; MIC (S. pyogenes ATCC 19615): < 0.03 µg/mL; MIC [10]: 32 µg/mL (≈ 37.9 µM); MIC [11]: 8 µg/mL (≈ 9.47 µM); MIC [12]: 2 µg/mL (≈ 2.37 µM); MIC [13]: > 64 µg/mL |
| CC[C@H]1OC(=O)[C@H](C)C(=O)[C@H](C)[C@@H](O[C@@H]2OC(C)CC(N(C)C)C2O)[C@](C)(OC)C[C@@H](C)C(=O)[C@H](C)[C@H]2N(CC#CCn3cc(-c4cc(F)ccn4)nn3)C(=O)O[C@]12C (stereo partly drawn) [FSM-100566] | 0.06 µg/mL (≈ 0.0726 µM) | > 64 µg/mL | > 64 µg/mL | 0.125 µg/mL (≈ 0.151 µM) | 64 µg/mL (≈ 77.4 µM) | < 0.03 µg/mL | 2 µg/mL (≈ 2.42 µM) | < 0.03 µg/mL | 32 µg/mL (≈ 38.7 µM) | 0.06 µg/mL (≈ 0.0726 µM) | < 0.03 µg/mL | > 64 µg/mL | 32 µg/mL (≈ 38.7 µM) | > 64 µg/mL | < 0.03 µg/mL | 8 µg/mL (≈ 9.67 µM) | > 64 µg/mL | 64 µg/mL (≈ 77.4 µM) | > 64 µg/mL | 64 µg/mL (≈ 77.4 µM) | MIC (A. baumannii ATCC 19606): 16 µg/mL (≈ 19.3 µM); MIC [9]: < 0.03 µg/mL; MIC (S. pyogenes ATCC 19615): < 0.03 µg/mL; MIC [10]: 64 µg/mL (≈ 77.4 µM); MIC [11]: 8 µg/mL (≈ 9.67 µM); MIC [12]: 8 µg/mL (≈ 9.67 µM); MIC [13]: > 64 µg/mL |

Reference: patent publication US10633407B2, “14-membered ketolides and methods of their preparation and use” (President and Fellows of Harvard College, priority 2014, dated 2020)
